Values after ≈ are worked out from the molar mass of the structure shown. Like-named read-outs stand apart in the source and are kept apart here. Where a SMILES comes first, the peptide text is derived from it. Bridges are numbered along the chain shown (N, C = ends).

Data set [1] has as its system E. coli BAA-2340 (KPC-2). As to the kind of experiment: microbe, parasite or virus in culture. It counts as cell-based. The procedure: (§1) Bacterial strains were obtained from American Type Culture Collection. K. pneumoniae strains included BAA-1705 (blaKPC-2, hypermucoid), BAA-2146 (blaNDM-1), BAA-700603 (SHV-18, extended spectrum β-lactamase, ESBL), and BAA-1706 (non-CRE reference strain). E. coli strains included BAA-2340 (blaKPC-2), BAA-2471 (blaNDM-1), and ML35 (non-CRE reference strain).
(§2) Minimum inhibitory concentration (MIC) assays were performed ± 50% heat-inactivated mouse serum using Clinical and Laboratory Standards Institute (CLSI; document M07-A9) protocols. Bacteria (5 × 10^5 CFU/ml) were incubated with antibiotics or peptide for 20 h at 37 °C, and bacterial growth was determined by A620 using a SpectraMax M5e plate reader.

Data set [2] concerns E. coli BAA-2471 (NDM-1). The experiment in a line: microbe, parasite or virus in culture. It counts as cell-based. The procedure:
as §1, §2

For data set [3], the system named is E. coli ML35. The experiment in a line: microbe, parasite or virus in culture. It counts as cell-based. The conditions noted are these: E. coli ML35, no MDR factor. On the procedure: as §1, §2
In data set [4] the test system is K. pneumoniae 700603 (ESBL). The experiment in a line: microbe, parasite or virus in culture. Format: cell-based. The procedure: as §1, §2
The subject of data set [5] is K. pneumoniae BAA-1705 (KPC-2). The experiment in a line: microbe, parasite or virus in culture. It counts as cell-based. The conditions noted are these: 37 °C. The procedure: as §1, §2
In data set [6] the test system is K. pneumoniae BAA-1706. As to the kind of experiment: microbe, parasite or virus in culture. It counts as cell-based. On the procedure: as §1, §2
The subject of data set [7] is K. pneumoniae BAA-2146 (NDM-1). As to the kind of experiment: microbe, parasite or virus in culture. It counts as cell-based. On the procedure: as §1, §2
For data set [8], the system named is CRE and non-CRE strains of K. pneumoniae and E. coli. It counts as cell-based. As to conditions: standard CLSI assay conditions. On the procedure:
as §1, §2

Data set [9] concerns Kp-1705 (K. pneumoniae BAA-1705). The experiment in a line: Kp-1705 bacteremic sepsis, survival. Format: in vivo, BALB/c mice. The conditions noted are these: Kp-1705 i.p. in BALB/c mice; single i.p. dose 1.25 mg/kg 1 h p.i. On the procedure: BALB/c mice (Jackson Laboratories) 8–10 weeks of age were acclimated (3–5 to a cage for at least 5 days prior to infection) in a thermostatically controlled room with 12 h light/dark cycle. Cryopreserved K. pneumoniae cells were thawed and adjusted to a density of 6–10 × 10^8 CFU/ml, confirmed by plating on trypticase soy agar (TSA) plates. E. coli BAA-2340 was grown to log-phase in trypticase soy broth, pelleted, washed with PBS, and resuspended in PBS at 0.5–1 × 10^9 CFU/ml. Mice were infected by i.p. injection of 2–5 × 10^8 CFU of Kp-1705 or 3–6 × 10^7 CFU of E. coli BAA-2340 using a 28 g needle in a volume of 0.5 ml. Post-infection, mice were observed three times a day for at least 4 days and then daily for 28 days. Mice were euthanized when they became moribund. All experiments used both male and female mice and were repeated at least twice.

In data set [10] the test system is disseminated candidiasis. The conditions noted are these: mouse models of disseminated candidiasis; cited from earlier work. The source says: MTD12813 is a bioinspired macrocyclic peptide that is structurally related to naturally occurring θ-defensins. RTD-1, the prototype θ-defensin, was identified as a broad-spectrum antimicrobial peptide in vitro[8],[9]. […] Mechanisms implicated in the moderation of cytokine-driven inflammation include modulation of NFκB and MAPK pathways, suppression of TNF release via the inhibition of the pro-TNF sheddase TACE (ADAM17)[26], and dis ...

[11] abbreviates: E. coli BAA-2340, KPC-2, 50% heat inactivated mouse serum.
Setting [12] is: E. coli BAA-2340, KPC-2, CLSI, 20 h, 37 °C, A620, no serum.
The mark [13] stands for this setting: 50% heat inactivated mouse serum.
Where [14] appears, read: CLSI, 20 h, 37 °C, A620, no serum.
Where [15] appears, read: CLSI M07-A9, 5 × 10^5 CFU/ml, 20 h, A620, no serum.
[16] abbreviates: in the presence of 50% heat inactivated mouse serum, 20 h, A620.
Setting [17] is: K. pneumoniae BAA-1706, no MDR factor, 50% heat inactivated mouse serum.
[18] abbreviates: K. pneumoniae BAA-1706, no MDR factor, CLSI, 20 h, 37 °C, A620, no serum.
Where [19] appears, read: Escherichia coli, BAA2471, 50% heat inactivated mouse serum, read-out: MIC.
The mark [20] stands for this setting: Escherichia coli, BAA2471, CLSI, 20 h, 37 °C, A620, no serum, read-out: MIC.
The mark [21] stands for this setting: Escherichia coli, 50% heat inactivated mouse serum, read-out: MIC.
Where [22] appears, read: Escherichia coli, CLSI, 20 h, 37 °C, A620, no serum, read-out: MIC.
Setting [23] is: Klebsiella pneumoniae, 50% heat inactivated mouse serum, read-out: MIC.
Where [24] appears, read: Klebsiella pneumoniae, CLSI, 20 h, 37 °C, A620, no serum, read-out: MIC.
[25] abbreviates: Klebsiella pneumoniae, BAA1705, CLSI M07-A9, 5 × 10^5 CFU/ml, 20 h, A620, no serum, read-out: MIC.
Where [26] appears, read: Klebsiella pneumoniae, BAA1706, K. pneumoniae BAA-1706, no MDR factor, 50% heat inactivated mouse serum, read-out: MIC.
Setting [27] is: Klebsiella pneumoniae, BAA2146, 50% heat inactivated mouse serum, read-out: MIC.
[28] abbreviates: Klebsiella pneumoniae, BAA2146, CLSI, 20 h, 37 °C, A620, no serum, read-out: MIC.

Colistin: the MIC in data set [1] (setting [11]), in data set [1] (setting [12]), in [2] (setting [13]), in data set [2] (setting [14]), in data set [3] (setting [13]) and in [3] (setting [14]) was under 0.78 µg/mL in each case. Also, the MIC in data set [4] (setting [13]), in data set [4] (setting [14]), in [5] (setting [15]), in data set [5] (setting [16]), in data set [6] (setting [17]) and in [6] (setting [18]) was under 0.78 µg/mL throughout. Also, the MIC in [7] (setting [13]) and in data set [7] (setting [14]) was under 0.78 µg/mL in each case. For the same compound, the “MIC against all seven organisms of the panel” value in data set [8] was under 0.78 µg/mL. In [9], the “long term (≥ 28 days) survival” value is recorded as 100%.

Regarding `C[C@@H](O)[C@H]1C(=O)N2C(C(=O)O)=C(S[C@@H]3CN[C@H](C(=O)N(C)C)C3)[C@H](C)[C@H]12` [Meropenem], the MIC in data set [1] (Escherichia coli, BAA2340) is 6.25 µg/mL (≈ 16.3 µM); in [1] (Escherichia coli, BAA2340, 20 h), 6.25 µg/mL (≈ 16.3 µM); in data set [2] (setting [19]), over 100 µg/mL; in [2] (setting [20]), 50 µg/mL (≈ 130 µM); in [3] (setting [21]) it was under 0.78 µg/mL; in data set [3] (setting [22]), under 0.78 µg/mL. Further, the MIC was under 0.78 µg/mL in data set [4] (setting [23]); under 0.78 µg/mL in data set [4] (setting [24]); 50 µg/mL (≈ 130 µM) in data set [5] (setting [25]); 50 µg/mL in data set [5] (setting [16]); 1.56 µg/mL (≈ 4.07 µM) in data set [6] (Klebsiella pneumoniae, BAA1706, 20 h); under 0.78 µg/mL in data set [6] (setting [26]). Further, the MIC in [7] (setting [27]) was over 100 µg/mL; in data set [7] (setting [28]) it was 100 µg/mL (≈ 261 µM). Also, the “long term (≥ 28 days) survival” value in [9] is given as “neither carbapenem provided significant survival benefit”.

Consider `CC[C@H](C)[C@@H]1NC(=O)[C@@H]2CSSC[C@H](NC(=O)[C@H](CCCNC(=N)N)NC(=O)[C@@H]3CSSC[C@H](NC1=O)C(=O)N[C@@H]([C@@H](C)O)C(=O)N[C@@H](CCCNC(=N)N)C(=O)NCC(=O)N[C@@H](Cc1ccccc1)C(=O)N3)C(=O)N[C@@H](CC(C)C)C(=O)N[C@H]1CSSC[C@H](NC(=O)[C@H](C(C)C)NC(=O)CNC(=O)[C@H](CCCNC(=N)N)NC(=O)[C@H](CCCNC(=N)N)NC1=O)C(=O)N[C@@H](CCCNC(=N)N)C(=O)N2` [RTD-1] (cyclo(GFCRCLCRRGVCRCICTR); disulfide 3-16, 5-14, 7-12), for which the MIC in data set [1] (setting [11]) was over 100 µg/mL; in data set [1] (setting [12]), 50 µg/mL (≈ 24 µM); in data set [2] (setting [13]) it was over 100 µg/mL; in data set [2] (setting [14]), 25 µg/mL (≈ 12 µM); in [3] (setting [13]), over 100 µg/mL; in data set [3] (setting [14]), 25 µg/mL (≈ 12 µM). Also, the MIC in data set [4] (setting [13]), in data set [4] (setting [14]), in data set [5] (setting [15]), in [5] (setting [16]), in data set [6] (setting [17]) and in data set [6] (setting [18]) was over 100 µg/mL throughout. Further, the figures for the MIC in data set [7] (setting [13]) and in data set [7] (setting [14]) were over 100 µg/mL and 100 µg/mL (≈ 48 µM), respectively. Besides, the “plasma Cmax as share of the MIC of the peptide” value in data set [10] was under 1%.

On to Polymyxin B, for which the MIC in data set [1] (setting [11]), in [1] (setting [12]), in data set [2] (setting [13]), in data set [2] (setting [14]), in data set [3] (setting [13]) and in data set [3] (setting [14]) was under 0.78 µg/mL each time. The MIC in data set [4] (setting [13]), in [4] (setting [14]), in data set [5] (setting [15]), in data set [5] (setting [16]), in [6] (setting [17]) and in data set [6] (setting [18]) was under 0.78 µg/mL in each case. The MIC in data set [7] (setting [13]) and in data set [7] (setting [14]) was under 0.78 µg/mL in each case. Besides, the “MIC against all seven organisms of the panel” value in data set [8] is under 0.78 µg/mL. Besides, in data set [9], the “long term (≥ 28 days) survival” value came out at 95%.

As for `C[C@@H](O)[C@H]1C(=O)N2C(C(=O)O)=C(SCCN=CN)C[C@H]12` [Imipenem], the MIC in data set [1] (Escherichia coli, BAA2340) was 6.25 µg/mL (≈ 20.9 µM); in data set [1] (Escherichia coli, BAA2340, E. coli BAA-2340, KPC-2, CLSI, 20 h, 37 °C, A620, no serum, read-out: MIC), 25 µg/mL (≈ 83.5 µM); in [2] (setting [19]) it was 25 µg/mL (≈ 83.5 µM); in [2] (setting [20]) it was 50 µg/mL (≈ 167 µM); in data set [3] (setting [21]), under 0.78 µg/mL; in data set [3] (setting [22]) it was under 0.78 µg/mL. In addition, the MIC in [4] (setting [23]) was under 0.78 µg/mL; in data set [4] (setting [24]), under 0.78 µg/mL; in data set [5] (Klebsiella pneumoniae, BAA1705, 20 h, in the presence of 50% heat inactivated mouse serum, A620) it was 12.5 µg/mL; in [5] (setting [25]), over 100 µg/mL; in data set [6] (setting [26]), under 0.78 µg/mL; in [6] (Klebsiella pneumoniae, BAA1706, K. pneumoniae BAA-1706, no MDR factor, CLSI, 20 h, 37 °C, A620, no serum, read-out: MIC), 3.13 µg/mL (≈ 10.5 µM). In addition, the MIC is 25 µg/mL (≈ 83.5 µM) in [7] (setting [27]) and over 100 µg/mL in [7] (setting [28]). The “long term (≥ 28 days) survival” value in data set [9] was “neither carbapenem provided significant survival benefit”.

These data come from paper PMC8648872, “A host-directed macrocyclic peptide therapeutic for MDR gram negative bacterial infections” (Scientific Reports, 2021).
